Laboratory results reported in ChEMBL document CHEMBL5543099 (Eur J Med Chem, 2024).
Values after ≈ are worked out from the molar mass of the structure shown. Active and inactive are the calls of the source. No cut-off for these calls is given here.

Assays:
[1] = tested on: Cell membrane; assay: Induction of inner membrane permeabilization in Staphylococcus aureus assessed as increase in fluorescence intensity at 16 microg/ml incubated for 15 mins by PI staining based microplate reader; assay type: cell membranes; details: dose 16.0 µg/ml
[2] = tested on: Cell membrane; assay: Induction of Cytoplasmic membrane depolarization in Staphylococcus aureus at 16 microg/ml incubated for 15 mins by DiSC3(5) dye based fluorescence microplate reader; assay type: cell membranes; details: dose 16.0 µg/ml
[3] = tested on: Staphylococcus aureus; assay: Antibacterial activity against Staphylococcus aureus assessed as inhibition of bacterial growth incubated for 16 to 20 hrs by CLSI protocol based broth microdilution method; assay type: functional; details: time 16-20 hrs
[4] = Hemolytic activity in sheep RBC assessed as hemolysis incubated for 1 hrs by absorbance based assay; assay type: toxicity, cell-based, Ovis aries, Erythrocyte; details: sheep red blood cells
[5] = tested on: Staphylococcus aureus; assay: Drug resistance, ratio of MIC for Staphylococcus aureus ATCC 29213 incubated for 16 to 18 hrs and measured after 2 passages to MIC for Staphylococcus aureus ATCC 29213 incubated for 16 to 18 hrs; assay type: functional
[6] = tested on: Staphylococcus aureus; assay: Drug resistance, ratio of MIC for Staphylococcus aureus ATCC 29213 incubated for 16 to 18 hrs and measured after 16 passages to MIC for Staphylococcus aureus ATCC 29213 incubated for 16 to 18 hrs; assay type: functional
[7] = tested on: Staphylococcus aureus; assay: Antibacterial activity against Staphylococcus aureus assessed as inhibition of bacterial growth incubated for 6 hrs in presence of 50% fetal bovine plasma by CLSI protocol based Muller Hinton broth assay; assay type: functional
[8] = tested on: Staphylococcus aureus; assay: Antibacterial activity against Staphylococcus aureus assessed as inhibition of bacterial growth by measuring fold change in MIC incubated for 6 hrs in presence of defibrinated sheep 50% plasma by CLSI protocol based Muller Hinton broth assay; assay type: functional
[9] = tested on: Staphylococcus aureus; assay: Antibacterial activity against Staphylococcus aureus assessed as inhibition of bacterial growth incubated for 6 hrs in presence of defibrinated sheep 50% plasma by CLSI protocol based Muller Hinton broth assay; assay type: functional
[10] = tested on: Staphylococcus aureus; assay: Antibacterial activity against Staphylococcus aureus assessed as inhibition of bacterial growth incubated for 6 hrs in presence of 50% fetal bovine serum by CLSI protocol based Muller Hinton broth assay; assay type: functional
[11] = tested on: Staphylococcus aureus; assay: Antibacterial activity against Staphylococcus aureus assessed as inhibition of bacterial growth by measuring fold change in MIC incubated for 6 hrs in presence of 50% fetal bovine serum by CLSI protocol based Muller Hinton broth assay; assay type: functional
[12] = tested on: Staphylococcus aureus; assay: Antibacterial activity against Staphylococcus aureus assessed as inhibition of bacterial growth by measuring fold change in MIC incubated for 6 hrs in presence of 50% fetal bovine plasma by CLSI protocol based Muller Hinton broth assay; assay type: functional
[13] = tested on: Staphylococcus aureus; assay: Antibacterial activity against methicilin-resistant Staphylococcus aureus assessed as inhibition of bacterial growth incubated for 24 hrs by broth microdilution method; assay type: functional
[14] = tested on: Staphylococcus aureus; assay: Antibacterial activity against vancomycin intermediate Staphylococcus aureus assessed as inhibition of bacterial growth incubated for 24 hrs by broth microdilution method; assay type: functional
[15] = tested on: Staphylococcus aureus; assay: Antibacterial activity against methicillin resistant Staphylococcus aureus; assay type: functional
[16] = tested on: Escherichia coli; assay: Induction of morphological changes in Escherichia coli assessed as outer membrane damage at 8 times of MIC incubated for 4 hrs by scanning electron microscopic analysis; assay type: functional, organism-based
[17] = Hemolytic activity in defibrinated sheep RBC incubated for 1 hrs; assay type: toxicity, cell-based, Ovis aries, Erythrocyte; details: defibrinated sheep red blood cells
[18] = tested on: Staphylococcus aureus; assay: Anti-biofilm activity against Staphylococcus aureus assessed as reduction in extended colonies in biofilm at 16 times of MIC incubated for 24 hrs by confocal laser scanning microscopic analysis; assay type: functional, organism-based
[19] = tested on: Enterococcus faecalis; assay: Antimicrobial activity against Enterococcus faecalis ATCC 29212 assessed as inhibition of bacterial growth incubated for 16 to 18 hrs by CLSI protocol based Muller Hinton broth assay; assay type: functional; details: time 16-18 hrs
[20] = tested on: Escherichia coli; assay: Induction of morphological changes in Escherichia coli assessed as disintegration of rod shaped cells at 8 times of MIC incubated for 4 hrs by scanning electron microscopic analysis; assay type: functional, organism-based
[21] = Cytotoxicity against human SW620 cells assessed as cell survival rate at 64 microg/ml incubated for 48 hrs by CCK8 assay relative to control; assay type: toxicity, cell-based, SW-620; details: at 64 µg/mL, read-out: Activity
[22] = tested on: Escherichia coli; assay: Induction of morphological changes in Escherichia coli assessed as shattering of rod shaped cells at 8 times of MIC incubated for 4 hrs by scanning electron microscopic analysis; assay type: functional, organism-based
[23] = tested on: Staphylococcus aureus; assay: Induction of morphological changes in Staphylococcus aureus assessed as irregular spherical appearance at 8 times of MIC incubated for 4 hrs by scanning electron microscopic analysis; assay type: functional, organism-based
[24] = tested on: Stenotrophomonas maltophilia; assay: Antimicrobial activity against Stenotrophomonas maltophilia ATCC 17808 assessed as inhibition of bacterial growth incubated for 16 to 18 hrs by CLSI protocol based Muller Hinton broth assay; assay type: functional; details: time 16-18 hrs
[25] = tested on: Staphylococcus aureus; assay: Antibacterial activity against Staphylococcus aureus assessed as reduction in bacterial colony incubated upto 24 hrs by time-kill kinetics assay; assay type: functional
[26] = tested on: Staphylococcus aureus; assay: Anti-biofilm activity against Staphylococcus aureus assessed as punctate distribution of bacteria in biofilm at 32 times of MIC incubated for 24 hrs by confocal laser scanning microscopic analysis; assay type: functional, organism-based
[27] = tested on: Cell membrane; assay: Induction of inner membrane permeabilization in Staphylococcus aureus assessed as fluorescence intensity at 16 microg/ml incubated for 15 mins by PI staining based microplate reader; assay type: cell membranes; details: dose 16.0 µg/ml
[28] = tested on: Staphylococcus aureus; assay: Antibacterial activity against Staphylococcus aureus assessed as reduction in bacterial colony at 8 times of MIC incubated for 1 hrs by time-kill kinetics assay; assay type: functional, organism-based
[29] = tested on: Cell membrane; assay: Induction of cell membrane damage in Staphylococcus aureus assessed as nucleic acid leakage at 4 times of MIC incubated for 2 hrs by n ultra-micro-volume spectrophotometric analysis; assay type: cell membranes
[30] = tested on: Staphylococcus aureus; assay: Antimicrobial activity against Staphylococcus aureus ATCC 29213 assessed as inhibition of bacterial growth incubated for 16 to 18 hrs by CLSI protocol based Muller Hinton broth assay; assay type: functional; details: time 16-18 hrs
[31] = tested on: Escherichia coli; assay: Antimicrobial activity against Escherichia coli ATCC 25922 assessed as inhibition of bacterial growth incubated for 16 to 18 hrs by CLSI protocol based Muller Hinton broth assay; assay type: functional; details: time 16-18 hrs
[32] = tested on: Staphylococcus aureus; assay: Induction of morphological changes in Staphylococcus aureus assessed as disintegrated membrane blocks at 8 times of MIC incubated for 4 hrs by scanning electron microscopic analysis; assay type: functional, organism-based
[33] = tested on: Staphylococcus aureus; assay: Antimicrobial activity against Staphylococcus aureus ATCC 29213 incubated for 16 to 18 hrs and measured before 9th passage by CLSI protocol based Muller Hinton broth assay; assay type: functional, organism-based
[34] = tested on: Staphylococcus aureus; assay: Antibacterial activity against persistent Staphylococcus aureus assessed as reduction in bacterial colony at 16 times of MIC measured for 24 hrs by CLSI protocol based Muller Hinton broth assay; assay type: functional, organism-based
[35] = tested on: Escherichia coli; assay: Antibacterial activity against Escherichia coli ATCC 25922 incubated for 16 to 18 hrs and measured before 7th passage by CLSI protocol based Muller Hinton broth assay; assay type: functional, organism-based
[36] = Hemolytic activity in defibrinated sheep RBC assessed as hemolysis rate at 1280 microg/ml incubated for 1 hrs relative to control; assay type: toxicity, cell-based, Ovis aries, Erythrocyte; details: defibrinated sheep red blood cells, at 1280 µg/mL, read-out: Activity
[37] = tested on: Cell membrane; assay: Induction of Cytoplasmic membrane depolarization in Staphylococcus aureus at 8 to 16 microg/ml incubated for 15 mins by fluorescence microplate reader; assay type: cell membranes; details: dose 8-16 µg/ml
[38] = tested on: Escherichia coli; assay: Drug resistance, ratio of MIC for Escherichia coli ATCC 25922 incubated for 16 to 18 hrs and measured after 25 passage to MIC for Escherichia coli ATCC 25922 incubated for 16 to 18 hrs; assay type: functional
[39] = tested on: Staphylococcus aureus; assay: Anti-biofilm activity against Staphylococcus aureus assessed as reduction in bacteria in biofilm at 32 times of MIC incubated for 24 hrs by confocal laser scanning microscopic analysis; assay type: functional, organism-based
[40] = tested on: Staphylococcus aureus; assay: Anti-biofilm activity against Staphylococcus aureus assessed as reduction in bacterial density at 16 times of MIC incubated for 24 hrs by confocal laser scanning microscopic analysis; assay type: functional, organism-based
[41] = Cytotoxicity against rat HBZY-1 cells assessed as cell survival rate at 64 microg/ml incubated for 48 hrs by CCK8 assay relative to control; assay type: toxicity, cell-based; details: at 64 µg/mL, read-out: Activity
[42] = tested on: Staphylococcus aureus; assay: Induction of morphological changes in Staphylococcus aureus assessed as appearance of aggregated membrane sheets at 8 times of MIC incubated for 4 hrs by scanning electron microscopic analysis; assay type: functional, organism-based
[43] = tested on: Escherichia coli; assay: Antibacterial activity against Escherichia coli assessed as reduction in bacterial colony at 2 times of MIC incubated for 2 to 24 hrs by time kill kinetics assay; assay type: functional, organism-based; details: time 2-24 hrs
[44] = tested on: Cell membrane; assay: Induction of cell membrane damage in Escherichia coli assessed as nucleic acid leakage at 4 times of MIC incubated for 2 hrs by n ultra-micro-volume spectrophotometric analysis; assay type: cell membranes
[45] = tested on: Staphylococcus aureus; assay: Antibacterial activity against Staphylococcus aureus assessed as reduction in bacterial colony at 8 times of MIC incubated for 8 hrs by time-kill kinetics assay; assay type: functional, organism-based

O=C(O)c1cn(C2CC2)c2cc(N3CCNCC3)c(F)cc2c1=O
Activity [1]: inactive
Activity [2]: inactive

CCCCCCCNC(=O)C[N+](C)(C)CCCOc1ccc(OCCC[N+](C)(C)CC(=O)NCCCCCCC)cc1.[Br-].[Br-]
MIC [3]: 0.5 µg/mL
HC50 at 1 h [4]: 1220 µg/mL

CCn1cc(C(=O)O)c(=O)c2cc(F)c(N3CCNCC3)cc21 [NORFLOXACIN]
Ratio [5]: 2
Ratio [6]: 64

COLISTIN
MIC [7]: 16 µg/mL
fold change (FC) [8]: 4
MIC [9]: 16 µg/mL
MIC [10]: 8 µg/mL
fold change (FC) [11]: 4
fold change (FC) [12]: 2

CCCCCCCC[n+]1ccc(CN[C@@]2(C)C[C@H](O[C@H]3[C@H](Oc4c5cc6cc4Oc4ccc(cc4Cl)[C@@H](O)[C@@H](NC(=O)[C@@H](CC(C)C)NC)C(=O)N[C@@H](CC(N)=O)C(=O)N[C@H]6C(=O)N[C@H]4C(=O)N[C@H](C(=O)N[C@@H](C(=O)O)c6cc(O)cc(O)c6-c6cc4ccc6O)[C@H](O)c4ccc(c(Cl)c4)O5)O[C@H](CO)[C@@H](O)[C@@H]3O)O[C@@H](C)[C@H]2O)cc1
MIC [13]: 0.1 µM
MIC [14]: 0.11 µM

COc1c2c(cc(F)c1N1CCN(CC(=O)Nc3ncc([N+](=O)[O-])s3)CC1)C(=O)C(C(=O)O)=CC2C1CC1 (configuration not stated)
MIC [15]: 0.01 µg/mL (≈ 0.0183 µM)

CCCCCCCCNC(=O)C[n+]1ccc(C(=O)N2CCN(c3cc4c(cc3F)c(=O)c(C(=O)O)cn4C3CC3)CC2)cc1.[Br-]
Activity [16]: Active
HC50 at 1 h [17]: > 1280 µg/mL
Activity [18]: Active
MIC [19]: 2 µg/mL
Activity [20]: Active
viability at 48 h, 64 microg/ml [21]: 68.2%
Activity [22]: Active
Activity [23]: Active
MIC [24]: 8 µg/mL
MIC [25]: 2 µg/mL
Activity [26]: Active
Flu intensity [27]: 300
Activity [28]: Active
Activity [29]: Active
MIC [7]: 4 µg/mL
MIC [30]: 2 µg/mL
MIC [31]: 2 µg/mL
Activity [32]: Active
fold change (FC) [8]: 2
MIC [9]: 4 µg/mL
Activity [33]: Active
Activity [34]: Active
Activity [35]: Active
hemolysis at 1 h, 1280 microg/ml [36]: 5.1%
Activity [37]: Active
Ratio [38]: 2
Activity [39]: Active
Activity [40]: Active
viability at 48 h, 64 microg/ml [41]: 96.9%
fold change (FC) [11]: 2
Ratio [6]: 4
fold change (FC) [12]: 2
Activity [42]: Active
Activity [43]: Active
Activity [44]: Active

CN[C@H](CC(C)C)C(=O)N[C@H]1C(=O)N[C@@H](CC(N)=O)C(=O)N[C@H]2C(=O)N[C@H]3C(=O)N[C@H](C(=O)N[C@H](C(=O)O)c4cc(O)cc(O)c4-c4cc3ccc4O)[C@H](O)c3ccc(c(Cl)c3)Oc3cc2cc(c3O[C@@H]2O[C@H](CO)[C@@H](O)[C@H](O)[C@H]2O[C@H]2C[C@](C)(N)[C@H](O)[C@H](C)O2)Oc2ccc(cc2Cl)[C@H]1O [VANCOMYCIN]
MIC [19]: 2 µg/mL (≈ 1.38 µM)
Activity [45]: Active

CC[C@H](C)[C@H](NC(=O)CN)C(=O)NCC(=O)N[C@@H](C)C(=O)N[C@H](C(=O)N[C@@H](CC(C)C)C(=O)N[C@@H](CCCCN)C(=O)N[C@H](C(=O)N[C@@H](CC(C)C)C(=O)N[C@H](C(=O)N[C@H](C(=O)NCC(=O)N[C@@H](CC(C)C)C(=O)N1CCC[C@H]1C(=O)N[C@@H](C)C(=O)N[C@@H](CC(C)C)C(=O)N[C@H](C(=O)N[C@@H](CO)C(=O)N[C@@H](Cc1c[nH]c2ccccc12)C(=O)N[C@H](C(=O)N[C@@H](CCCCN)C(=O)N[C@@H](CCCNC(=N)N)C(=O)N[C@@H](CCCCN)C(=O)N[C@@H](CCCNC(=N)N)C(=O)N[C@@H](CCC(N)=O)C(=O)N[C@@H](CCC(N)=O)C(N)=O)[C@@H](C)CC)[C@@H](C)CC)[C@@H](C)O)[C@@H](C)O)C(C)C)C(C)C [MELITTIN]
MIC [19]: 2 µg/mL (≈ 0.703 µM)
viability at 48 h, 64 microg/ml [21]: 5.7%
MIC [24]: 8 µg/mL (≈ 2.81 µM)
Flu intensity [27]: 600
Activity [2]: Active
fold change (FC) [8]: 32
viability at 48 h, 64 microg/ml [41]: 1.4%
fold change (FC) [11]: 32
fold change (FC) [12]: 32
Activity [44]: Active
